What all share (assay): NCI tumour cell line growth inhibition, 48 h
The test system of assay [1] is M14 melanoma.
Assay [2] deals with UO-31 renal.
For assay [3], the system named is SN12C renal.
The test system of assay [4] is SK-MEL-2 melanoma.
The test system of assay [5] is MDA-N.
Assay [6] concerns HT29 colon.
Assay [7] deals with NCI-H23 lung.
Assay [8] concerns TK-10 renal.
For assay [9], the system named is UACC-62 melanoma.
In assay [10] the test system is BT-549 breast.
Assay [11] relates to RPMI-8226 leukemia.
In assay [12] the test system is PC-3 prostate.
Assay [13] has as its system OVCAR-8 ovarian.
For assay [14], the system named is HCT-15 colon.
The test system of assay [15] is HS 578T breast.
In assay [16] the test system is SR leukemia.
The subject of assay [17] is LOX IMVI melanoma.

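Five compound concentrations were applied to cells in 96-well plates for 48 hours; endpoints were derived by simple linear interpolation of the resulting dose-response curve. Definition used: TGI = concentration required for complete inhibition of growth.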

As to `Cc1[nH]n(-c2nc(O)c(C)c(=O)[nH]2)c(=O)c1CCO`, the TGI in assay [1], in assay [2], in [3], in assay [4], in [5] and in [6] was greater than 100 µM each time. For the same molecule, the TGI in [7], in [8], in [9], in assay [10], in assay [11] and in assay [12] was greater than 100 µM throughout. For the same molecule, the TGI in [13], in [14] and in [15] was greater than 100 µM in each case.
`CSc1cc(Cl)c(C)cc1S(=O)(=O)NC(=O)NNc1ccccn1`: the TGI in [1], in assay [16], in assay [3], in [4], in [5] and in [6] was greater than 100 µM throughout. Also, the TGI in assay [12], in assay [13], in assay [14], in assay [17] and in [15] was greater than 100 µM throughout.
Turning to `COc1ccc(/C=N/n2c(Cc3ccc(Cl)cc3)n[nH]c2=O)cc1`, the TGI in [1] is greater than 100 µM; in assay [2], greater than 100 µM; in assay [16], greater than 100 µM; in assay [3] it was greater than 100 µM; in assay [4], 61.5 µM; in assay [5], greater than 100 µM. Also, the TGI in assay [6] is 28.2 µM; in assay [7] it was greater than 100 µM; in [9] it was greater than 100 µM; in assay [10], greater than 100 µM; in [11] it was greater than 100 µM; in assay [12], greater than 100 µM. The values for the TGI in [13] and in assay [14] were 74.6 µM and greater than 100 µM, respectively.
`C=C(Br)C(Cl)(CBr)CCC(Br)C(C)(C)Cl` (stereo not drawn): the TGI in [1], in assay [2], in [16], in assay [3], in assay [4] and in assay [5] was greater than 10 µM each time. Also, the TGI in assay [6], in [7], in assay [8], in [9], in assay [10] and in [11] was greater than 10 µM throughout. For the same molecule, the TGI in assay [12] and in [13] was greater than 10 µM throughout.
As for `O=C(CN=C(CN(c1ccccc1)c1ccccc1)Oc1c([N+](=O)[O-])cc([N+](=O)[O-])cc1[N+](=O)[O-])N1CCNCC1`, the TGI in assay [1], in [16], in [3], in assay [5], in assay [6] and in assay [7] was greater than 100 µM throughout. Moreover, the TGI in [8], in assay [9], in [10], in assay [11], in assay [12] and in assay [13] was greater than 100 µM in each case. The TGI in assay [14] and in assay [15] was greater than 100 µM throughout.
Regarding `COC(=O)[C@H]1ON2O[C@@H](O[C@H]3CCCC[C@@H]3C(C)(C)c3ccccc3)C[C@@H]3CC[C@H]1[C@@]32C`, the TGI in [1], in assay [2], in assay [16], in assay [3], in assay [5] and in assay [6] was greater than 100 µM each time. The TGI in assay [7], in [8], in assay [9], in [11], in [13] and in [14] was greater than 100 µM each time. The TGI in assay [17] and in [15] was greater than 100 µM in each case.
Take `c1ccc(-c2cc(-c3cc(-c4ccccc4)n[nH]3)[nH]n2)cc1`: the TGI in assay [1], in assay [2], in [16], in [3], in [4] and in [5] was greater than 100 µM in each case. Besides, the TGI in [6], in [7], in assay [8], in assay [9], in [10] and in assay [12] was greater than 100 µM each time. Besides, the TGI in assay [13], in assay [14] and in assay [15] was greater than 100 µM in each case.
With `O/N=C1\CC2(N3CCOCC3)CCC1(Cc1ccccc1)CC2`, the TGI was greater than 100 µM in assay [1]; greater than 100 µM in [2]; greater than 100 µM in assay [16]; greater than 100 µM in [3]; 85 µM in [4]; greater than 100 µM in assay [5]. Moreover, the TGI in assay [6] was greater than 100 µM; in assay [7], greater than 100 µM; in [12], greater than 100 µM; in assay [13], 48.1 µM; in [14], greater than 100 µM; in assay [17] it was greater than 100 µM.
As for `COc1cc(/C=C/C(=O)O)ccc1O`, the TGI in assay [1], in [2], in [16], in assay [3], in assay [4] and in [5] was greater than 100 µM each time. For the same molecule, the TGI in [6], in [7], in assay [8], in [11], in assay [12] and in assay [13] was greater than 100 µM throughout. Moreover, the TGI in assay [14], in [17] and in assay [15] was greater than 100 µM each time.
In the case of `CC(C)(C)OC(=O)/C=C/C(=O)O/C=C/[N+](=O)[O-]`, the TGI in [1], in assay [2], in assay [16], in assay [3], in [5] and in [6] was greater than 100 µM throughout. Besides, the TGI in [7], in [8], in [9], in assay [11], in assay [13] and in assay [14] was greater than 100 µM in each case. Further, the TGI in assay [17] and in assay [15] was greater than 100 µM in each case.

Values taken from PubChem BioAssay (NCI).
